In patent publication US11214803B2, “Modulators of YAP1 expression” (Ionis Pharmaceuticals, Inc., priority 2019, dated 2022):
Strand notation (5' to 3'): a small letter for the sugar, then the base; units joined by * are phosphorothioate-linked, units joined directly phosphodiester-linked; [ ] holds rarer units or linkages, { } end groups; capitals alone tell only the bases. k = constrained ethyl (cEt); [5mC] = 5-methylcytosine; d = 2'-deoxy (DNA)

System: Yap1 mRNA
Test: Antisense inhibition of human Yap1 in A-431 cells by cEt gapmers, single dose (Example 3, RTS36584)
Assay type: cell-based
Summary of the method: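 Read-out is Yap1 mRNA as percent of untreated control, by quantitative RT-PCR normalized to total RNA (RiboGreen). Cells (A-431) received 2,000 nM of 3-10-3 cEt phosphorothioate gapmer via free uptake for roughly 48 hours.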

[1] = Table 8, A-431 cells, 5,000 cells per well, free uptake, 2,000 nM, approximately 48 hours, RTS36584, normalized to RIBOGREEN, Yap1 mRNA relative to untreated control cells
[2] = Table 26, Yap1 mRNA by 3-10-3 cEt gapmers targeting SEQ ID NO.: 1, and 2, percent of untreated control
[3] = Table 11, A-431 cells, 5,000 cells per well, free uptake, 2,000 nM oligonucleotide, approx. 48 hours, primer probe set RTS36584, Yap1 mRNA normalized to RIBOGREEN, percent of untreated control
[4] = Table 27, Yap1 mRNA by 3-10-3 cEt gapmers targeting SEQ ID NO.: 1, and 2, percent of untreated control
[5] = Table 35, Yap1 mRNA as percent of untreated control, 3-10-3 cEt gapmers targeting SEQ ID NO: 1 and 2, single dose
[6] = Table 13, A-431 cells, 5,000 cells per well, free uptake, 2,000 nM modified oligonucleotide, approx. 48 hours, RTS36584, normalized to RIBOGREEN, Yap1 mRNA relative to untreated control cells
[7] = Table 29, Yap1 mRNA as percent of untreated control, 3-10-3 cEt gapmers targeting SEQ ID NO.: 1, and 2
[8] = Table 9, A-431 cells, 5,000 cells per well, free uptake, 2,000 nM, approximately 48 hours, RTS36584, normalized to RIBOGREEN, Yap1 mRNA relative to untreated control cells
[9] = Table 28, Yap1 mRNA as percent of untreated control, 3-10-3 cEt gapmers targeting SEQ ID NO.: 1, and 2
[10] = Table 34, Yap1 mRNA as percent of untreated control, 3-10-3 cEt gapmers targeting SEQ ID NO: 1 and 2, single dose
[11] = Table 10, A-431 cells, 5,000 cells per well, free uptake, 2,000 nM oligonucleotide, approx. 48 hours, primer probe set RTS36584, Yap1 mRNA normalized to RIBOGREEN, percent of untreated control
[12] = Table 12, A-431 cells, 5,000 cells per well, free uptake, 2,000 nM modified oligonucleotide, approx. 48 hours, RTS36584, normalized to RIBOGREEN, Yap1 mRNA relative to untreated control cells

## 958404 (antisense kG*k[5mC]*kA*d[5mC]*dA*d[5mC]*dA*dA*d[5mC]*dT*d[5mC]*dA*dG*kA*k[5mC]*kA) [Compound 958404]
[1]
  YAP1 (% UTC): 52 % UTC

## 1076172 (kT*kA*kT*dT*dA*dG*dT*dA*dA*dA*dG*dA*dG*kT*kA*k[5mC]; antisense) [compound 1076172]
[2]
  YAP1 (% UTC): 98 % UTC

## 958628 (antisense kG*k[5mC]*kT*dA*dA*d[5mC]*dT*dA*d[5mC]*dA*dT*dT*dG*k[5mC]*kA*kG) [Compound 958628]
[3]
  YAP1 (% UTC): 81 % UTC

## 1075885 (antisense k[5mC]*kA*kT*dT*dA*dG*dT*dA*dA*dT*dG*dA*d[5mC]*kT*kA*kA) [compound 1075885]
[4]
  YAP1 (% UTC): 112 % UTC

## 1076149 (kT*kT*kA*dT*dT*dA*dA*d[5mC]*dT*d[5mC]*dA*d[5mC]*dG*kA*kA*kG; antisense) [compound 1076149]
[5]
  YAP1 (% UTC): 24 % UTC

## 958645 (kG*k[5mC]*k[5mC]*d[5mC]*dA*dT*dA*dG*dT*dT*dG*dA*d[5mC]*kA*kG*kG; antisense) [Compound 958645]
[6]
  YAP1 (% UTC): 54 % UTC

## 1075343 (antisense kA*kA*k[5mC]*dT*dA*dA*dA*dA*dG*dG*dG*dA*dG*kT*kA*kG) [compound 1075343]
[7]
  YAP1 (% UTC): 89 % UTC

## 1076108 (kA*kA*kA*d[5mC]*dA*dA*dA*dA*d[5mC]*d[5mC]*dG*dG*d[5mC]*kT*kT*kT; antisense) [compound 1076108]
[2]
  YAP1 (% UTC): 116 % UTC

## 958726 (antisense k[5mC]*kT*kG*dT*d[5mC]*dA*dG*dT*dT*dA*dT*d[5mC]*d[5mC]*kT*kA*kT) [Compound 958726]
[8]
  YAP1 (% UTC): 3 % UTC

## 1074126 (k[5mC]*kT*kG*dG*d[5mC]*dG*dG*d[5mC]*dT*dG*d[5mC]*dG*d[5mC]*k[5mC]*kT*k[5mC]; antisense) [compound 1074126]
[9]
  YAP1 (% UTC): 111 % UTC

## 1074932 (antisense kG*kG*kA*dG*dA*d[5mC]*dT*dA*dT*dA*d[5mC]*dA*dA*k[5mC]*kA*kG) [compound 1074932]
[10]
  YAP1 (% UTC): 88 % UTC

## 1075759 (k[5mC]*k[5mC]*kT*dT*dA*dT*dA*dA*dA*dT*dT*dA*dT*kG*kA*k[5mC]; antisense) [compound 1075759]
[7]
  YAP1 (% UTC): 44 % UTC

## 1075502 (k[5mC]*kT*kT*dA*dA*d[5mC]*dA*dT*dG*dA*dT*dT*d[5mC]*kT*kA*kG; antisense) [compound 1075502]
[9]
  YAP1 (% UTC): 61 % UTC

## 1074644 (antisense kA*kT*kT*dG*dA*dA*dG*dG*dG*d[5mC]*d[5mC]*dA*dA*kA*kA*kT) [compound 1074644]
[10]
  YAP1 (% UTC): 93 % UTC

## 958697 (antisense k[5mC]*kT*kA*dA*dA*dG*dA*dT*dG*dA*d[5mC]*dT*dA*k[5mC]*kT*kG) [Compound 958697]
[11]
  YAP1 (% UTC): 39 % UTC

## 958703 (antisense kG*kA*kT*dA*dA*d[5mC]*dT*dA*dA*dG*d[5mC]*dA*d[5mC]*kT*kA*k[5mC]) [Compound 958703]
[3]
  YAP1 (% UTC): 49 % UTC

## 1075086 (antisense kA*kG*kT*dT*dA*dT*dA*dG*dA*d[5mC]*dT*dT*dT*kG*kT*kA) [compound 1075086]
[9]
  YAP1 (% UTC): 25 % UTC

## 958502 (k[5mC]*kT*kA*dT*dT*dA*dA*d[5mC]*dA*dG*dA*dT*dT*k[5mC]*kA*k[5mC]; antisense) [Compound 958502]
[11]
  YAP1 (% UTC): 13 % UTC

## 958817 (kT*kG*k[5mC]*d[5mC]*dA*dG*dG*dT*dA*dA*dG*d[5mC]*d[5mC]*kA*k[5mC]*kA; antisense) [Compound 958817]
[11]
  YAP1 (% UTC): 30 % UTC

## 958505 (kG*kA*kT*dA*dA*dT*d[5mC]*dG*dA*dG*dA*dT*dT*kT*kA*kA; antisense) [Compound 958505]
[6]
  YAP1 (% UTC): 6 % UTC

## 958508 (kG*kA*kG*dA*dG*d[5mC]*dA*dG*dA*dT*dA*dA*dT*k[5mC]*kG*kA; antisense) [Compound 958508]
[3]
  YAP1 (% UTC): 7 % UTC

## 958749 (antisense k[5mC]*k[5mC]*kA*d[5mC]*dA*dA*dG*dG*dG*d[5mC]*dA*dG*dT*kA*k[5mC]*kG) [Compound 958749]
[12]
  YAP1 (% UTC): 51 % UTC

## 958412 (antisense kA*k[5mC]*k[5mC]*dT*dT*dT*dA*d[5mC]*d[5mC]*dA*dA*dA*dA*k[5mC]*kG*kA) [Compound 958412]
[1]
  YAP1 (% UTC): 49 % UTC

## 1076335 (antisense k[5mC]*kA*k[5mC]*d[5mC]*dT*dA*dT*dA*dA*dG*dG*dA*dA*kT*kG*kG) [compound 1076335]
[7]
  YAP1 (% UTC): 80 % UTC

## 958393 (antisense kG*k[5mC]*k[5mC]*dT*dA*dT*dG*dA*dG*dT*d[5mC]*dA*dA*k[5mC]*k[5mC]*kT) [Compound 958393]
[1]
  YAP1 (% UTC): 89 % UTC

## 1075565 (kT*kA*kT*dA*dT*dA*dA*d[5mC]*dA*dG*dG*d[5mC]*d[5mC]*kA*k[5mC]*k[5mC]; antisense) [compound 1075565]
[4]
  YAP1 (% UTC): 52 % UTC

## 958391 (antisense kA*kG*k[5mC]*dG*dA*dA*dG*dG*dT*dG*d[5mC]*dG*dG*kA*kG*k[5mC]) [Compound 958391]
[1]
  YAP1 (% UTC): 102 % UTC

## 958771 (antisense k[5mC]*kT*kA*d[5mC]*dA*dG*dA*d[5mC]*dG*dA*dA*dT*dT*k[5mC]*k[5mC]*kA) [Compound 958771]
[8]
  YAP1 (% UTC): 18 % UTC

## 958686 (antisense k[5mC]*kG*k[5mC]*dA*dA*dT*dA*dT*dA*dG*dT*d[5mC]*dT*kA*kT*kA) [Compound 958686]
[8]
  YAP1 (% UTC): 4 % UTC

## 958707 (antisense kT*k[5mC]*kA*dA*dT*dG*d[5mC]*dT*dG*dT*dA*dT*d[5mC]*kA*kG*kA) [Compound 958707]
[11]
  YAP1 (% UTC): 23 % UTC

## 1074510 (kA*kT*kA*d[5mC]*dA*dT*dT*d[5mC]*d[5mC]*dA*d[5mC]*dT*dA*k[5mC]*k[5mC]*kA; antisense) [compound 1074510]
[9]
  YAP1 (% UTC): 10 % UTC

## 958358 (antisense kG*kG*k[5mC]*dG*dG*d[5mC]*dT*dT*dG*dA*dA*dG*dA*kA*kG*kG) [Compound 958358]
[1]
  YAP1 (% UTC): 34 % UTC

## 958582 (kA*kA*kT*d[5mC]*dT*dG*d[5mC]*dT*dG*dA*dT*dA*dT*kA*kT*kA; antisense) [Compound 958582]
[11]
  YAP1 (% UTC): 21 % UTC

## 958557 (k[5mC]*kA*k[5mC]*dA*dA*d[5mC]*d[5mC]*dA*dA*d[5mC]*dT*dA*dT*kT*kA*k[5mC]; antisense) [Compound 958557]
[11]
  YAP1 (% UTC): 10 % UTC

## 1074997 (antisense kG*k[5mC]*k[5mC]*dG*d[5mC]*dG*dA*dG*dG*dA*dA*dA*dA*kT*kA*kA) [compound 1074997]
[5]
  YAP1 (% UTC): 119 % UTC

## 958573 (kG*kG*k[5mC]*dA*dA*dA*dT*dT*dA*dT*dA*dG*dG*k[5mC]*kA*k[5mC]; antisense) [Compound 958573]
[3]
  YAP1 (% UTC): 2 % UTC

## 958662 (kG*kA*kA*d[5mC]*dA*dG*dA*dT*dA*dG*dG*dA*d[5mC]*kT*kA*k[5mC]; antisense) [Compound 958662]
[11]
  YAP1 (% UTC): 51 % UTC

## 1075407 (antisense kG*kA*kA*d[5mC]*dT*dA*dT*dA*dT*dA*dA*d[5mC]*d[5mC]*kT*kG*kA) [compound 1075407]
[7]
  YAP1 (% UTC): 32 % UTC

## 958649 (kT*kG*k[5mC]*d[5mC]*dA*d[5mC]*dT*dG*dG*dT*dG*dA*dA*kT*kA*k[5mC]; antisense) [Compound 958649]
[12]
  YAP1 (% UTC): 36 % UTC

## 1075117 (k[5mC]*k[5mC]*kT*d[5mC]*dA*dA*dT*dA*dG*d[5mC]*dA*dA*dG*kA*k[5mC]*kA; antisense) [compound 1075117]
[4]
  YAP1 (% UTC): 48 % UTC

## 1076078 (k[5mC]*kT*kT*dT*dA*dG*d[5mC]*d[5mC]*dT*d[5mC]*dT*dA*dT*kA*k[5mC]*k[5mC]; antisense) [compound 1076078]
[9]
  YAP1 (% UTC): 23 % UTC

## 958525 (kA*kT*kG*dA*dA*dG*dG*dT*dA*dA*dA*d[5mC]*d[5mC]*kA*k[5mC]*kT; antisense) [Compound 958525]
[6]
  YAP1 (% UTC): 3 % UTC

## 958676 (kG*kA*kA*d[5mC]*dT*dT*dA*dG*dT*dT*d[5mC]*d[5mC]*d[5mC]*kT*kA*kT; antisense) [Compound 958676]
[8]
  YAP1 (% UTC): 34 % UTC

## 958444 (antisense kA*k[5mC]*kG*d[5mC]*d[5mC]*d[5mC]*d[5mC]*dG*dG*d[5mC]*dT*d[5mC]*d[5mC]*kA*k[5mC]*kG) [Compound 958444]
[12]
  YAP1 (% UTC): 97 % UTC

## 958415 (antisense k[5mC]*kT*kG*dT*dG*dT*dA*dG*dG*d[5mC]*dT*dG*dA*k[5mC]*kT*kT) [Compound 958415]
[1]
  YAP1 (% UTC): 16 % UTC

## 958402 (antisense k[5mC]*kT*k[5mC]*dT*dT*dA*d[5mC]*dA*d[5mC]*dA*dG*d[5mC]*d[5mC]*kT*kA*kG) [Compound 958402]
[1]
  YAP1 (% UTC): 28 % UTC
